Earlier results in patent publication US20230041138A1, “TREATMENT OF HIS HYPORESPONDERS” (NewAmsterdam Pharma B.V. (Dutch Registration No. 55971946), priority 2021, published 2023).

System: LDL-C
Settings: rosuvastatin 20 mg; cited from earlier work

## CC(C)c1nc(N(C)S(C)(=O)=O)nc(-c2ccc(F)cc2)c1/C=C/[C@@H](O)C[C@@H](O)CC(=O)O [rosuvastatin]
  median LDL-C lowering response: 50%
  share of patients with LDL-C reduction <50%: 43%
